These results are taken from patent US8674136B2, “Aromatic butan-2-ol compounds and preparation and uses thereof” (Institute of Pharmacology and Toxicology Academy of …, priority 2010, dated 2014).

Converted amounts (≈) assume the structure as drawn. Where only a bound is given, the exact number is not on record here.

In series [1] the test system is Standard Strain H37Rv of mycobacterium tuberculosis. Kind of series: MIC against standard strain H37Rv by Microplate Alamar Blue Assay (MABA). To be noted: M. tuberculosis H37Rv, 7H9 medium, 37° C. The series is classed as cell-based. In general terms: Alamar Blue is a resazurin reagent that responds to reducing activity.
Series [2] is described as follows: Acute toxicity in mice, single oral intragastric administration. The series is classed as in vivo. To be noted: male, BALB/C, mouse, in vivo, single oral intragastric administration, preliminary. As to the method: (§1) Experiments on the Acute Toxicity of the Compounds
(§2) The acute toxicities of Compounds 4, 16 and 25 were in vivo evaluated preliminarily in mice. Animal: male BALB/C mice, 18-20 g/mouse, 3 mice for blank control group, and 5 mice for each of test groups.
(§3) Method: Suspensions of Compound 25: 49 mg/ml (depended on the total amount of the compound provided); Compounds 4 and 16: 50 mg/ml were prepared in 0.5% CMC to separately. Each mouse of the 3 groups was subjected to oral intragastric administration of 0.2 ml of drug, and the doses were separately as follows: Compound 25: 490 mg/kg; and Compounds 4 and 16: 500 mg/kg. The blank control was administered with water. The consciousness, behavior and death of mice were observed every day after administration until 7 days of administration, and the survived mice were dissected after 7 days to observe pathological changes of tissues.

The subject of another series is male BALB/C mice. The series is described as above. The class given is in vivo. To be noted: observed 7 days. How it is done: as §1, §2, §3

`COc1cc2ccc(Br)cc2cc1C(c1ccc(Cl)cc1)C(O)(CCN(C)C)c1cccc2ccccc12` (single isomer, unassigned) [Compound 4, 1-(4-chlorophenyl)-2-(1-naphthyl)-1-[2-(7-bromo-3-methoxy)naphthyl]-4-(N,N-dimethylamino)-butan-2-ol]: the MIC in series [1] is 0.244 µg/mL (≈ 0.414 µM). In addition, the LD50 at 7 days in series [2] was at least 500 mg/kg. Besides, the “death or abnormality of the animals” value with male BALB/C mice (single dose of 500 mg/kg) is recorded as “no death nor abnormality”.
The like results for `COc1cc2ccc(Br)cc2cc1C(c1ccc(Cl)cc1)C(O)(CCN(C)C)c1cccc(Br)c1` (stereo not shown) [Compound 16, 1-(4-chlorophenyl)-2-(3-bromophenyl)-1-[2-(7-bromo-3-methoxy)naphthyl]-4-(N,N-dimethylamino)-butan-2-ol] were, in that order, 0.184 µg/mL (≈ 0.298 µM), at least 500 mg/kg and “no death nor abnormality”.
Compound `COc1cc2ccccc2cc1C(c1ccc(Cl)cc1)C(O)(CCN(C)C)c1ccc(F)cc1F` (stereo not shown) [Compound 14, 1-(4-chlorophenyl)-2-(2,4-difluorophenyl)-1-[2-(3-methoxy)naphthyl]-4-(N,N-dimethylamino)-butan-2-ol] yielded a melting point of 190.6 to 192.4 °C. In series [1], this compound showed a minimum inhibitory concentration (MIC) of 0.754 µg/mL (≈ 1.52 µM).
Turning to `COc1cc2ccc(Br)cc2cc1C(c1ccccc1)C(O)(CCN(C)C)c1cccc2ccccc12` (stereo not shown) [Compound 25, 1-phenyl-2-(1-naphthyl)-1-[2-(7-bromo-3-methoxy)naphthyl]-4-(N,N-dimethylamino)-butan-2-ol], the MIC in series [1] stood at 0.594 µg/mL (≈ 1.07 µM). In series [2], this compound showed an LD50 at 7 days of at least 490 mg/kg. Besides, in the series on male BALB/C mice (single dose of 490 mg/kg), the “death or abnormality of the animals” value is “no death nor abnormality”.
For the compound `COc1cc2ccc(Br)cc2cc1C(c1ccc(C)cc1)C(O)(CCN(C)C)c1cccc2ccccc12` (stereo not shown) [Compound 30, 1-(4-methylphenyl)-2-(1-naphthyl)-1-[2-(7-bromo-3-methoxy)naphthyl]-4-(N,N-dimethylamino)-butan-2-ol], the melting point lay in the range of 189.5 to 190.8 °C. In series [1], this compound had an MIC of 1.000 µg/mL (≈ 1.76 µM).

In general, MIC refers to the smallest concentration in the dilution series that meets the test's criterion for growth inhibition. For orientation: LD50 means the dose at which mortality reaches 50%. Read a high LD50 as a less toxic substance. As a reminder, the melting point is the temperature, or range, at which the solid turns liquid.
